Experimental data: patent publication US10792289B2 (Horizon Orphan LLC, priority 2009, dated 2020)

Tested on: stable CF patients
Test: Phase 2 study: pulmonary function (FEV1, FVC, FEF 25-75)
Type: in vivo, human
Set-up: FEF 25-75, Median / FEV1, Day 14, Mean / FEF 25-75, Mean: unit not given here; FEV1, Day 1, Mean / FEV1, Day 1, Median / FEV1, Day 14, Median / FEV1, Day 28, Mean / FEV1, Day 28, Median: unit: L
Details: EE population
Protocol: The following dosage regimens (as nebulizer loaded doses) were evaluated: 120 mg QD (daily); 240 mg QD (daily); and 240 mg BID (twice daily).
Efficacy endpoints including clinical endpoints, pulmonary function tests, and additional microbiological parameters were assessed as change from Day 1 to subsequent visits where the endpoint data was collected. Time to need for intravenous/oral/inhaled anti-pseudomonal antimicrobials were assessed from Day 1 until final visit using survival analysis. The primary population for efficacy analysis was the EE population, but efficacy endpoints were also analyzed using the MITT population.
Changes in FEV1 (forced expiratory volume in 1 second), FVC (forced vital capacity) and FEF 25-75 (forced expiratory flow 25-75%) from Day 1 to all subsequent visits were determined for patients. Tables 26 and 27 summarize the results for FEV1 measurements in EE and MITT populations, respectively. FIGS. 7 and 8 show graphs of percent change in FEV1 (L) and percent change in FEV1(L) vs. placebo, respectively, at Day 28 for the EET population treated with placebo, 120 mg QD, 240 mg QD, or 240 mg BID. […] Tables 28 and 29 summarize the results for predicted FEVI measurements in EE and MITT populations, respectively. Tables 30 and 31 summarize results for FEF 25-75 measurements in EE and MITT populations, respectively.

[1] = Day 1 (baseline), combined 240 mg QD and BID
[2] = Day 14, combined 240 mg QD and BID

C[C@H]1COc2c(N3CCN(C)CC3)c(F)cc3c(=O)c(C(=O)O)cn1c23 [Levofloxacin, levofloxacin]
% predicted FEV1, Day 1, Mean (120 mg QD): 54.0 % predicted
% predicted FEV1, Day 1, Median (120 mg QD): 53.0 % predicted
% predicted FEV1, Day 14, Mean (120 mg QD): 54.7 % predicted
% predicted FEV1, Day 14, Median (120 mg QD): 53.0 % predicted
% predicted FEV1, Day 28, Mean (120 mg QD): 55.0 % predicted
% predicted FEV1, Day 28, Median (120 mg QD): 52.0 % predicted
FEF 25-75, Percent Change from Baseline to Day 14, Mean (120 mg QD): 0.41%
FEF 25-75, Percent Change from Baseline to Day 14, Median (120 mg QD): 0.45%
FEF 25-75, Percent Change from Baseline to Day 28, Mean (120 mg QD): 0.73%
FEF 25-75, Percent Change from Baseline to Day 28, Median (120 mg QD): 2.70%
FEV1, Day 1, Mean (120 mg QD): 1.99
FEV1, Day 1, Median (120 mg QD): 1.87
FEV1, Day 14, Mean (120 mg QD): 2.00
FEV1, Day 14, Median (120 mg QD): 1.82
FEV1, Day 28, Mean (120 mg QD): 2.03
FEV1, Day 28, Median (120 mg QD): 1.91
FEV1, Percent Change from Baseline to Day 14, Mean (120 mg QD): 1.13%
FEV1, Percent Change from Baseline to Day 14, Median (120 mg QD): 0.56%
FEV1, Percent Change from Baseline to Day 28, Mean (120 mg QD): 1.71%
FEV1, Percent Change from Baseline to Day 28, Median (120 mg QD): 1.06%
% predicted FEV1, Day 1, Mean (240 mg BID): 48.2 % predicted
% predicted FEV1, Day 1, Median (240 mg BID): 45.5 % predicted
% predicted FEV1, Day 14, Mean (240 mg BID): 51.7 % predicted
% predicted FEV1, Day 14, Median (240 mg BID): 49.5 % predicted
% predicted FEV1, Day 28, Mean (240 mg BID): 50.5 % predicted
% predicted FEV1, Day 28, Median (240 mg BID): 49.0 % predicted
FEF 25-75, Percent Change from Baseline to Day 14, Mean (240 mg BID): 16.99%
FEF 25-75, Percent Change from Baseline to Day 14, Median (240 mg BID): 11.66%
FEF 25-75, Percent Change from Baseline to Day 28, Mean (240 mg BID): 13.11%
FEF 25-75, Percent Change from Baseline to Day 28, Median (240 mg BID): 5.71%
FEV1, Day 1, Mean (240 mg BID): 1.86
FEV1, Day 1, Median (240 mg BID): 1.70
FEV1, Day 14, Mean (240 mg BID): 2.02
FEV1, Day 14, Median (240 mg BID): 1.88
FEV1, Day 28, Mean (240 mg BID): 1.90
FEV1, Percent Change from Baseline to Day 14, Mean (240 mg BID): 8.87%
FEV1, Percent Change from Baseline to Day 14, Median (240 mg BID): 7.51%
FEV1, Percent Change from Baseline to Day 28, Mean (240 mg BID): 5.05%
FEV1, Percent Change from Baseline to Day 28, Median (240 mg BID): 4.55%
% predicted FEV1, Day 1, Mean (240 mg QD): 55.9 % predicted
% predicted FEV1, Day 1, Median (240 mg QD): 56.0 % predicted
% predicted FEV1, Day 14, Mean (240 mg QD): 57.7 % predicted
% predicted FEV1, Day 14, Median (240 mg QD): 62.0 % predicted
% predicted FEV1, Day 28, Mean (240 mg QD): 57.3 % predicted
% predicted FEV1, Day 28, Median (240 mg QD): 58.0 % predicted
FEF 25-75, Percent Change from Baseline to Day 14, Mean (240 mg QD): 9.58%
FEF 25-75, Percent Change from Baseline to Day 14, Median (240 mg QD): 4.41%
FEF 25-75, Percent Change from Baseline to Day 28, Mean (240 mg QD): 4.70%
FEF 25-75, Percent Change from Baseline to Day 28, Median (240 mg QD): 5.77%
FEV1, Day 1, Mean (240 mg QD): 2.09
FEV1, Day 1, Median (240 mg QD): 2.02
FEV1, Day 14, Mean (240 mg QD): 2.16
FEV1, Day 14, Median (240 mg QD): 2.09
FEV1, Day 28, Mean (240 mg QD): 2.13
FEV1, Day 28, Median (240 mg QD): 2.15
FEV1, Percent Change from Baseline to Day 14, Mean (240 mg QD): 3.84%
FEV1, Percent Change from Baseline to Day 14, Median (240 mg QD): 1.92%
FEV1, Percent Change from Baseline to Day 28, Mean (240 mg QD): 2.51%
FEV1, Percent Change from Baseline to Day 28, Median (240 mg QD): 1.28%
% predicted FEV1, Day 1, Mean (Combined 240 mg QD and BID): 52.1 % predicted
% predicted FEV1, Day 1, Median (Combined 240 mg QD and BID): 51.0 % predicted
% predicted FEV1, Day 14, Mean (Combined 240 mg QD and BID): 54.7 % predicted
% predicted FEV1, Day 14, Median (Combined 240 mg QD and BID): 52.0 % predicted
% predicted FEV1, Day 28, Mean (Combined 240 mg QD and BID): 54.0 % predicted
% predicted FEV1, Day 28, Median (Combined 240 mg QD and BID): 54.0 % predicted
FEF 25-75, Percent Change from Baseline to Day 14, Mean (Combined 240 mg QD and BID): 13.23%
FEF 25-75, Percent Change from Baseline to Day 14, Median (Combined 240 mg QD and BID): 8.79%
FEF 25-75, Percent Change from Baseline to Day 28, Mean (Combined 240 mg QD and BID): 8.78%
FEF 25-75, Percent Change from Baseline to Day 28, Median (Combined 240 mg QD and BID): 5.74%
FEV1, Day 1, Mean (Combined 240 mg QD and BID): 1.98
FEV1, Day 1, Median (Combined 240 mg QD and BID): 1.81
FEV1, Day 14, Mean (Combined 240 mg QD and BID): 2.09
FEV1, Day 14, Median (Combined 240 mg QD and BID): 2.03
FEV1, Day 28, Mean (Combined 240 mg QD and BID): 2.02
FEV1, Day 28, Median (Combined 240 mg QD and BID): 1.98
FEV1, Percent Change from Baseline to Day 14, Mean (Combined 240 mg QD and BID): 6.32%
FEV1, Percent Change from Baseline to Day 14, Median (Combined 240 mg QD and BID): 3.94%
FEV1, Percent Change from Baseline to Day 28, Mean (Combined 240 mg QD and BID): 3.75%
FEV1, Percent Change from Baseline to Day 28, Median (Combined 240 mg QD and BID): 2.80%
FEF 25-75, Mean (Day 1 (baseline), 120 mg QD): 1.17
FEF 25-75, Median (Day 1 (baseline), 120 mg QD): 0.98
FEF 25-75, Mean (Day 1 (baseline), 240 mg BID): 0.85
FEF 25-75, Median (Day 1 (baseline), 240 mg BID): 0.68
FEF 25-75, Mean (Day 1 (baseline), 240 mg QD): 1.22
FEF 25-75, Median (Day 1 (baseline), 240 mg QD): 1.10
FEF 25-75, Mean [1]: 1.04
FEF 25-75, Median [1]: 0.83
FEF 25-75, Mean (Day 14, 120 mg QD): 1.18
FEF 25-75, Median (Day 14, 120 mg QD): 0.99
FEF 25-75, Mean (Day 14, 240 mg BID): 1.00
FEF 25-75, Median (Day 14, 240 mg BID): 0.78
FEF 25-75, Mean (Day 14, 240 mg QD): 1.33
FEF 25-75, Median (Day 14, 240 mg QD): 1.11
FEF 25-75, Mean [2]: 1.17
FEF 25-75, Median [2]: 0.92
FEF 25-75, Mean (Day 28, 120 mg QD): 1.23
FEF 25-75, Median (Day 28, 120 mg QD): 1.03
FEF 25-75, Mean (Day 28, 240 mg BID): 0.93
FEF 25-75, Median (Day 28, 240 mg BID): 0.78
FEF 25-75, Mean (Day 28, 240 mg QD): 1.27
FEF 25-75, Median (Day 28, 240 mg QD): 1.15
FEF 25-75, Mean (Day 28, combined 240 mg QD and BID): 1.10
